# Test system: Southern Armyworm (Spodoptera eridania), 2nd Instar Larvae
# Experiment: Southern armyworm leaf-dip test, 2nd instar larvae
# Format: in vivo
# Conditions: foliar, 120 h, observation at 5 days, read-out: mortality in comparison with untreated controls
# Method: 2.1 Southern Armyworm (Spodoptera eridania), 2nd Instar Larvae
# The active compounds were formulated for testing the activity against insects and arachnids as a 10.000 ppm solution in a mixture of 35% acetone and water, which was diluted with water, if needed.
# A Sieva lima bean leaf expanded to 78 cm in length is dipped in the test solution with agitation for 3 seconds and allowed to dry in a hood. The leaf is then placed in a 100×10 mm petri dish containing a damp filter paper on the bottom and ten 2nd instar caterpillars. At 5 days, observations are made of mortality, reduced feeding, or any interference with normal molting.
row,Structure (SMILES),mortality at 300 ppm [%]
1,CC(C=NNC(=O)Cc1ccccc1)=Cc1ccccc1 [Compound 18],> 80
2,O=C(NN=CC(Cl)=Cc1ccccc1)c1ccc(Cl)s1 [Compound 97],> 80
3,CC(C=NNC(=O)c1cccnc1)=Cc1ccccc1 [Compound 160],> 80
4,CC(C=NNC(=O)c1cccnc1)=Cc1cccc(C(F)(F)F)c1 [Compound 161],> 80
5,O=C(NN=CC(Cl)=Cc1ccccc1)c1cccnc1 [Compound 162],> 80
6,CC(C=NNC(=O)c1cnccn1)=Cc1ccccc1 [Compound 177],> 80
7,COc1ccc(C(=O)NN=CC(C)=Cc2ccccc2)cc1OC [Compound 185],> 80
8,CC(C=NNC(=O)c1ccc(F)cc1)=Cc1ccccc1 [Compound 190],> 80
9,O=C(NN=CC(Br)=Cc1ccccc1)c1ccccc1F [Compound 192],> 80
10,CC(C=NNC(=O)c1ccccc1F)=Cc1cccc(F)c1 [Compound 198],> 80
11,CC(C=NNC(=O)c1cc(C(C)C)no1)=Cc1ccccc1 [Compound 238],> 80
12,CC(C=NNC(=O)c1ccc(F)cc1F)=Cc1ccccc1 [Compound 318],> 80

# Test system: Silverleaf Whitefly (bemisia argentifolii)
# Experiment: Silverleaf whitefly test on cotton plants
# Format: in vivo
# Conditions: 72 h, cotyledons dipped, adults, 3 days after treatment, read-out: mortality compared to untreated controls
# Method: 2.5 Silverleaf Whitefly (bemisia argentifolii)
# (§1) The active compounds were formulated in 50:50 acetone:water and 100 ppm Kinetic® surfactant.
# Selected cotton plants were grown to the cotyledon state (one plant per pot). The cotyledons were dipped into the test solution to provide complete coverage of the foliage and placed in a well-vented area to dry. Each pot with treated seedling was placed in a plastic cup and 10 to 12 whitefly adults (approximately 3-5 day old) were introduced. The insects were collected using an aspirator and an 0.6 cm, non-toxic Tygon® tubing (R-3603) connected to a barrier pipette tip. The tip, containing the collected insects, was then gently inserted into the soil containing the treated plant, allowing insects to crawl out of the tip to reach the foliage for feeding. The cups were covered with a reusable screened lid (150 micron mesh polyester screen PeCap from Tetko Inc). Test plants were maintained in the holding room at about 25° C. and 20-40% relative humidity for 3 days avoiding direct exposure to the fluorescent light (24 hour photoperiod) to prevent trapping of heat inside the cup. Mortality was assessed 3 days after treatment of the plants.
row,Structure (SMILES),mortality at 300 ppm [%]
1,CC(C=NNC(=O)c1cccs1)=Cc1ccccc1 [Compound 50],> 80
2,CC(C=NNC(=O)c1ccccn1)=Cc1ccc(F)cc1 [Compound 158],> 80
3,COc1ccccc1C(=O)NN=CC(C)=Cc1cccc(F)c1 [Compound 187],> 80
4,CCC(C=NNC(=O)c1ccc(F)cc1)=Cc1ccccc1 [Compound 189],> 80
5,CCC(C=NNC(=O)c1ccccc1F)=Cc1ccccc1 [Compound 193],> 80

# Test system: Cotton Aphid (aphis gossypii)
# Experiment: Cotton aphid test on cotton cotyledons
# Format: in vivo
# Conditions: 120 h, cotyledons dipped, after 5 days, read-out: mortality in comparison with untreated controls
# Text: 2.2 Cotton Aphid (aphis gossypii)
# as §1
# Cotton plants at the cotyledon stage (one plant per pot) were infested by placing a heavily infested leaf from the main colony on top of each cotyledon. The aphids were allowed to transfer to the host plant overnight, and the leaf used to transfer the aphids was removed. The cotyledons were dipped in the test solution and allowed to dry. After 5 days, mortality counts were made.
row,Structure (SMILES),mortality at 300 ppm [%]
1,CC(C=NNC(=O)c1cccs1)=Cc1cccc(F)c1 [Compound 70],> 75
2,CC(C=NNC(=O)c1cccs1)=Cc1ccc(F)cc1 [Compound 71],> 75
3,O=C(NN=CC(Cl)=Cc1ccccc1)c1ccco1 [Compound 120],> 75
4,CC(C=NNC(=O)c1ccco1)=Cc1ccccc1 [Compound 121],> 75
5,CCC(C=NNC(=O)c1ccco1)=Cc1ccccc1 [Compound 126],> 75
6,O=C(NN=CC=Cc1ccccc1F)c1ccco1 [Compound 130],> 75
7,CC(C=NNC(=O)c1ccco1)=Cc1cccc(F)c1 [Compound 131],> 75
8,O=C(NN=CC(Cl)=Cc1ccccc1)c1ccccn1 [Compound 157],> 75
9,CC(C=NNC(=O)c1ccccn1)=Cc1cccc(F)c1 [Compound 159],> 75
10,CC(C=NNC(=O)c1ccccc1)=Cc1ccc(F)cc1 [Compound 181],> 75
11,CC(C=NNC(=O)c1ccccc1F)=Cc1ccccc1 [Compound 194],> 75
12,CC(C=NNC(=O)c1cc(F)ccc1F)=Cc1ccc(F)cc1 [Compound 202],> 75
13,CC(C=NNC(=O)c1cc(F)ccc1F)=Cc1cccc(F)c1 [Compound 203],> 75
14,CC(C=NNC(=O)c1c(F)cccc1F)=Cc1cccc(F)c1 [Compound 207],> 75
15,CC(C=NNC(=O)c1cc(C(C)C)on1)=Cc1ccc(F)cc1 [Compound 236],> 75
16,CC(C=NNC(=O)c1cc(C(C)C)no1)=Cc1cccc(F)c1 [Compound 240],> 75
17,CC(C=NNC(=O)c1cc(Cl)ccn1)=Cc1cccc(F)c1 [Compound 277],> 75
18,CC(C=NNC(=O)c1cnccn1)=Cc1ccccc1F [Compound 314],> 75
19,CC(C=NNC(=O)c1ccc(F)cc1F)=Cc1ccc(F)cc1 [Compound 319],> 75
20,CCC(C=NNC(=O)c1ccccn1)=Cc1ccccc1F [Compound 392],> 75
21,CCC(C=NNC(=O)c1cccc(C)n1)=Cc1ccccc1F [Compound 394],> 75
22,CCC(C=NNC(=O)c1cccc(C)n1)=Cc1cccc(F)c1F [Compound 395],> 75
23,CC(C=NNC(=O)c1ncccc1F)=Cc1ccccc1 [Compound 398],> 75
24,CC(C=NNC(=O)c1ncccc1F)=Cc1ccc(F)cc1 [Compound 399],> 75

# Test system: Green Peach Aphid (Myzus persicae)
# Experiment: Green peach aphid test on pepper plants
# Format: in vivo
# Conditions: 120 h, leaves dipped, after 5 days, read-out: mortality in comparison with untreated controls
# Text: 2.3 Green Peach Aphid (Myzus persicae)
# as §1
# Pepper plants in the 2nd leaf-pair stage (variety ‘California Wonder’) were infested with approximately 40 laboratory-reared aphids by placing infested leaf sections on top of the test plants. The leaf sections were removed after 24 hr. The leaves of the intact plants were dipped into gradient solutions of the test compound and allowed to dry.
# Test plants were maintained under fluorescent light (24 hour photoperiod) at about 25° C. and 20-40% relative humidity. Aphid mortality on the treated plants, relative to mortality on check plants, was determined after 5 days.
row,Structure (SMILES),mortality at 300 ppm [%]
1,CC(C=NNC(=O)Cc1ccccc1)=Cc1cccc(F)c1 [Compound 19],> 75
2,COc1ccc(CC(=O)NN=CC(C)=Cc2ccc(F)cc2)cc1OC [Compound 20],> 75
3,CC(C=NNC(=O)c1sccc1C)=Cc1ccccc1 [Compound 76],> 75
4,CC(C=NNC(=O)c1ccco1)=Cc1ccc(Cl)cc1 [Compound 128],> 75
5,CC(C=NNC(=O)c1cc(C)nn1C)=Cc1ccccc1 [Compound 152],> 75
6,CC(C=NNC(=O)c1ccncc1)=Cc1cccc(F)c1 [Compound 173],> 75
7,COc1ccccc1C(=O)NN=CC(C)=Cc1ccc(F)cc1 [Compound 186],> 75
8,CC(C=NNC(=O)c1ccccc1F)=Cc1ccccc1 [Compound 194],> 75
9,O=C(NN=CC(Cl)=Cc1ccccc1)c1ccccc1F [Compound 195],> 75
10,O=C(NN=CC=Cc1ccccc1F)c1ccccc1F [Compound 197],> 75
11,CC(C=NNC(=O)c1ccccc1F)=Cc1cccc(F)c1 [Compound 198],> 75
12,CCC(C=NNC(=O)c1cccc(F)c1)=Cc1ccccc1 [Compound 200],> 75
13,CC(C=NNC(=O)c1cc(F)ccc1F)=Cc1ccccc1C [Compound 204],> 75
14,CC(C=NNC(=O)c1cc(C(C)C)on1)=Cc1ccccc1 [Compound 235],> 75
15,CC(C=NNC(=O)c1cc(C(C)C)on1)=Cc1cccc(F)c1 [Compound 237],> 75
16,CC(C=NNC(=O)c1cc(Cl)ccn1)=Cc1ccccc1F [Compound 278],> 75
17,CC(C=NNC(=O)c1ccc(F)cc1F)=Cc1cccc(F)c1 [Compound 320],> 75
18,CC(C=NNC(=O)c1ccc(F)cc1F)=Cc1ccccc1F [Compound 321],> 75
19,CCC(C=NNC(=O)c1ccccn1)=Cc1ccc(F)cc1 [Compound 393],> 75
20,CC(C=NNC(=O)c1cccc(Cl)n1)=Cc1cccc(F)c1 [Compound 397],> 75
21,CC(C=NNC(=O)c1cccc(F)n1)=Cc1ccccc1 [Compound 400],> 75

# Test system: Bean Aphid (aphis fabae)
# Experiment: Bean aphid test on nasturtium plants
# Format: in vivo
# Conditions: 72 h, plant dipped, after 3 days, read-out: mortality in comparison with untreated controls
# Text: 2.4 Bean Aphid (aphis fabae)
# as §1
# Nasturtium plants grown in Metro mix in the 1st leaf-pair stage (variety ‘Mixed Jewle’) were infested with approximately 2-30 laboratory-reared aphids by placing infested cut plants on top of the test plants. The cut plants were removed after 24 hr. Each plant was dipped into the test solution to provide complete coverage of the foliage, stem, protruding seed surface and surrounding cube surface and allowed to dry in the fume hood. The treated plants were kept at about 25° C. with continuous fluorescent light. Aphid mortality was determined after 3 days.
row,Structure (SMILES),mortality at 300 ppm [%]
1,CC(C=NNC(=O)Cc1ccccc1)=Cc1ccccc1 [Compound 18],> 75
2,O=C(NN=CC(Cl)=Cc1ccccc1)c1cccs1 [Compound 69],> 75
3,CC(C=NNC(=O)c1cccs1)=Cc1ccc(F)cc1 [Compound 71],> 75
4,CCC(C=NNC(=O)c1ccco1)=Cc1ccccc1 [Compound 126],> 75
5,O=C(NN=CC(Cl)=Cc1ccccc1)c1ccccn1 [Compound 157],> 75
6,CC(C=NNC(=O)c1ccccn1)=Cc1cccc(F)c1 [Compound 159],> 75
7,CC(C=NNC(=O)c1cnccc1C(F)(F)F)=Cc1ccccc1 [Compound 168],> 75
8,CC(C=NNC(=O)c1cnccc1C(F)(F)F)=Cc1ccc(F)cc1 [Compound 169],> 75
9,O=C(NN=CC(Cl)=Cc1ccccc1)c1ccncc1 [Compound 170],> 75
10,CC(C=NNC(=O)c1ccncc1)=Cc1ccccc1 [Compound 171],> 75
11,CC(C=NNC(=O)c1ccc(O)cc1)=Cc1ccc(F)cc1 [Compound 184],> 75
12,CC(C=NNC(=O)c1ccc(F)cc1)=Cc1ccc(F)cc1 [Compound 191],> 75
13,O=C(NN=CC=Cc1ccccc1)c1ccccc1F [Compound 196],> 75
14,CC(C=NNC(=O)c1ccccc1F)=Cc1ccc(F)cc1 [Compound 199],> 75
15,CC(C=NNC(=O)c1cc(F)ccc1F)=Cc1ccc(F)cc1 [Compound 202],> 75
16,CC(C=NNC(=O)c1ccc2ccccc2c1)=Cc1cccc(F)c1 [Compound 210],> 75
17,CC(C=NNC(=O)c1ccccn1)=Cc1cccc(C)c1 [Compound 253],> 75

# — patent US20070066627A1, “Hydrazone derivatives for combatting harmful insects and arachnids” (priority 2004, published 2007)
